# Measurements as given in patent publication US20050288273A1, “Antibacterial agents” (priority 2003, published 2005).
# What was measured:
# S. aureus UC-76 = assay: Antibacterial assay (MIC), standard microtitration, Gram positive; assay type: cell-based; details: Gram positive bacteria; for MIC: Staphylococcus aureus, UC76, read-out: Minimum Inhibitory Concentrations S. aureus UC-76
# Source text: (§1) Test A—Antibacterial Assays
# S pyogenes C203 = assay: as above; assay type: cell-based; details: Gram positive bacteria; for MIC: read-out: Minimum Inhibitory Concentrations S pyogenes C203
# Source text: as §1
# E. faecalis MGH-2 = assay: as above; assay type: cell-based; details: Gram positive bacteria; for MIC: Enterococcus faecalis, MGH2, read-out: Minimum Inhibitory Concentrations E. faecalis MGH-2
# Source text: as §1
# H. influenzae HI3542 = assay: Antibacterial assay (MIC), standard microtitration, Gram negative; assay type: cell-based; details: Gram negative bacteria; for MIC: Haemophilus influenzae, HI3542, read-out: Minimum Inhibitory Concentrations H. influenzae HI3542
# Source text: as §1
# E. coli Tol C = assay: as above; assay type: cell-based; details: for Minimum Inhibitory Concentrations E. coli Tol C: Gram negative bacteria; for MIC: Escherichia coli, read-out: Minimum Inhibitory Concentrations E. coli Tol C
# Source text: as §1
# M. catarrhalis BC3534 = assay: as above; assay type: cell-based; details: Gram negative bacteria; for MIC: Moraxella catarrhalis, BC3534, read-out: Minimum Inhibitory Concentrations M. catarrhalis BC3534
# Source text: as §1
compound,measurement,setting,value
CC(=S)NC[C@H]1CN(c2ccc3c(c2)CCCc2cnoc2-3)C(=O)O1,melting point,,185 to 195 °C
CC(=S)NC[C@H]1CN(c2ccc3c(c2)CCCc2cn[nH]c2-3)C(=O)O1,melting point,,190 to 195 °C
CC(C)(C)OC(=O)NC[C@H]1CN(c2ccc3c(c2)CCCc2cnoc2-3)C(=O)O1,melting point,,180 to 184 °C
Cl.NC[C@H]1CN(c2ccc3c(c2)CCCc2cnoc2-3)C(=O)O1,melting point,,245 to 258 °C
Cl.NC[C@H]1CN(c2ccc3c(c2)CCCc2cn[nH]c2-3)C(=O)O1,melting point,,201 to 223 °C
CCC(=O)NC[C@H]1CN(c2ccc3c(c2)CCCc2cnoc2-3)C(=O)O1,melting point,,185 to 186 °C
CC(C)C(=O)NC[C@H]1CN(c2ccc3c(c2)CCCc2cnoc2-3)C(=O)O1,melting point,,187 to 193 °C
O=C(NC[C@H]1CN(c2ccc3c(c2)CCCc2cnoc2-3)C(=O)O1)C1CC1,melting point,,211 to 215 °C
O=C(CC1CC1)NC[C@H]1CN(c2ccc3c(c2)CCCc2cnoc2-3)C(=O)O1,melting point,,187 to 191 °C
O=C(CC1CCCC1)NC[C@H]1CN(c2ccc3c(c2)CCCc2cnoc2-3)C(=O)O1,melting point,,193 to 195 °C
COC(=O)CC(=O)NC[C@H]1CN(c2ccc3c(c2)CCCc2cnoc2-3)C(=O)O1,melting point,,205 to 217 °C
O=C(NC[C@H]1CN(c2ccc3c(c2)CCCc2cnoc2-3)C(=O)O1)c1ccccc1,melting point,,240 to 245 °C
O=C(CC(F)(F)F)NC[C@H]1CN(c2ccc3c(c2)CCCc2cnoc2-3)C(=O)O1,melting point,,150 to 186 °C
O=C(NC[C@H]1CN(c2ccc3c(c2)CCCc2cnoc2-3)C(=O)O1)C(F)F,melting point,,145 to 180 °C
CC(C)C(=O)NC[C@H]1CN(c2ccc3c(c2)CCCc2cnn(C(=O)C(C)C)c2-3)C(=O)O1,melting point,,75 to 80 °C
O=C(CC1CCCC1)NC[C@H]1CN(c2ccc3c(c2)CCCc2cnn(C(=O)CC4CCCC4)c2-3)C(=O)O1,melting point,,165 to 167 °C
O=C(NC[C@H]1CN(c2ccc3c(c2)CCCc2cnn(C(=O)c4ccccc4)c2-3)C(=O)O1)c1ccccc1,melting point,,75 to 95 °C
O=C(NC[C@H]1CN(c2ccc3c(c2)CCCc2cn[nH]c2-3)C(=O)O1)C(F)F,melting point,,147 to 150 °C
CCC(=O)NC[C@H]1CN(c2ccc3c(c2)CCCc2cn[nH]c2-3)C(=O)O1,melting point,,233 to 235 °C
O=C(NC[C@H]1CN(c2ccc3c(c2)CCCc2cn[nH]c2-3)C(=O)O1)C1CC1,melting point,,224 to 227 °C
O=C(CC1CC1)NC[C@H]1CN(c2ccc3c(c2)CCCc2cn[nH]c2-3)C(=O)O1,melting point,,212 to 215 °C
O=C(CC1CCCC1)NC[C@H]1CN(c2ccc3c(c2)CCCc2cn[nH]c2-3)C(=O)O1,melting point,,205 to 208 °C
O=C(NC[C@H]1CN(c2ccc3c(c2)CCCc2cn[nH]c2-3)C(=O)O1)c1ccccc1,melting point,,105 to 125 °C
O=C(CC(F)(F)F)NC[C@H]1CN(c2ccc3c(c2)CCCc2cn[nH]c2-3)C(=O)O1,melting point,,243 to 245 °C
COC(=O)NC[C@H]1CN(c2ccc3c(c2)CCCc2cnoc2-3)C(=O)O1,melting point,,166 to 168 °C
CCOC(=O)NC[C@H]1CN(c2ccc3c(c2)CCCc2cnoc2-3)C(=O)O1,melting point,,181 to 183 °C
CCNC(=O)NC[C@H]1CN(c2ccc3c(c2)CCCc2cnoc2-3)C(=O)O1,melting point,,193 to 196 °C
COC(=O)NC[C@H]1CN(c2ccc3c(c2)CCCc2cn[nH]c2-3)C(=O)O1,melting point,,87 to 93 °C
CCOC(=O)NC[C@H]1CN(c2ccc3c(c2)CCCc2cn[nH]c2-3)C(=O)O1,melting point,,122 to 126 °C
CN(C)/C=C1/CCCc2cc(N3C[C@H](CNC(=O)OC(C)(C)C)OC3=O)ccc2C1=O (stereo in doubt),melting point,,157 to 160 °C
O=C1O[C@@H](CNC(=O)C(F)(F)F)CN1c1ccc2c(c1)CCCc1cnoc1-2 (stereo in doubt),melting point,,203 to 205 °C
"CC(=O)NC[C@H]1CN(c2ccc3c(c2)-c2[nH]ncc2CCC3)C(=O)O1 [Example 1, (S)-N-[2-Oxo-3-(1,4,5,6-tetrahydro-1,2-diaza-benzo[e]azulen-9-yl)oxalidin-5-ylmethyl]acetamide]",Minimum Inhibitory Concentrations S. aureus UC-76,S. aureus UC-76,>64 µg/mL
same,Minimum Inhibitory Concentrations S pyogenes C203,S pyogenes C203,>64 . . . μg/mL
same,Minimum Inhibitory Concentrations E. faecalis MGH-2,E. faecalis MGH-2,>64 µg/mL
same,Minimum Inhibitory Concentrations H. influenzae HI3542,H. influenzae HI3542,>64 µg/mL
same,Minimum Inhibitory Concentrations E. coli Tol C,E. coli Tol C,>64 µg/mL
same,Minimum Inhibitory Concentrations M. catarrhalis BC3534,M. catarrhalis BC3534,>64 µg/mL
"CC(=O)NC[C@H]1CN(c2ccc3c(c2)-c2oncc2CCC3)C(=O)O1 [Example 4, (S)-N-[3-(5,6-dihydro-4H-1-oxa-2-aza-benzo[e]azulen-9-yl)-2-oxo-oxazolidin-5-ylmethyl]acetamide]",MIC,S. aureus UC-76,0.5 µg/mL
same,MIC,S pyogenes C203,0.125 µg/mL
same,MIC,E. faecalis MGH-2,0.25 µg/mL
same,MIC,H. influenzae HI3542,2 µg/mL
same,MIC,E. coli Tol C,> 64 µg/mL
same,MIC,M. catarrhalis BC3534,1 µg/mL
"CC(=O)NC[C@H]1CN(c2ccc3c(c2)CCCc2c(-c4ccc(F)cc4)n[nH]c2-3)C(=O)O1 [Example 95, (S)-N-{3-[3-(4-Fluoro-phenyl)-1,4,5,6-tetrahydro-1,2-diaza-benzo[e]azulen-8-yl]-2-oxo-oxazolidin-5-ylmethyl}-acetamide]",MIC,S. aureus UC-76,4 µg/mL
same,MIC,S pyogenes C203,0.5 µg/mL
same,MIC,E. faecalis MGH-2,0.5 µg/mL
same,MIC,H. influenzae HI3542,8 µg/mL
same,MIC,E. coli Tol C,> 64 µg/mL
same,MIC,M. catarrhalis BC3534,1 µg/mL
"CC(=O)NC[C@H]1CN(c2ccc3c(c2)CCCc2c(-c4ccncc4)n[nH]c2-3)C(=O)O1 [Example 96, (S)-N-[2-Oxo-3-(3-pyridin-4-yl-1,4,5,6-tetrahydro-1,2-diaza-benzo[e]azulen-8-yl)-oxazolidin-5-ylmethyl]-acetamide]",MIC,S. aureus UC-76,2 µg/mL
same,MIC,S pyogenes C203,0.25 µg/mL
same,MIC,E. faecalis MGH-2,1 µg/mL
same,MIC,H. influenzae HI3542,4 µg/mL
same,MIC,E. coli Tol C,> 64 µg/mL
same,MIC,M. catarrhalis BC3534,2 µg/mL
"CC(=O)NC[C@H]1CN(c2ccc3c(c2)CCCc2c(C(F)(F)F)n[nH]c2-3)C(=O)O1 [Example 97, (S)-N-[2-Oxo-3-(3-trifluoromethyl-1,4,5,6-tetrahydro-1,2-diaza-benzo[e]azulen-8-yl)-oxazolidin-5-ylmethyl]-acetamide]",MIC,S. aureus UC-76,1 µg/mL
same,MIC,S pyogenes C203,0.5 µg/mL
same,MIC,E. faecalis MGH-2,1 µg/mL
same,MIC,H. influenzae HI3542,> 4 µg/mL
same,MIC,E. coli Tol C,> 64 µg/mL
same,MIC,M. catarrhalis BC3534,2 µg/mL
"CC(=O)NC[C@H]1CN(c2ccc3c(c2)CCCc2c(-c4ccccc4)n[nH]c2-3)C(=O)O1 [Example 98, (S)-N-[2-Oxo-3-(3-phenyl-1,4,5,6-tetrahydro-1,2-diaza-benzo[e]azulen-8-yl)-oxazolidin-5-ylmethyl]-acetamide]",MIC,S. aureus UC-76,0.5 µg/mL
same,MIC,S pyogenes C203,0.5 µg/mL
same,MIC,E. faecalis MGH-2,0.5 µg/mL
same,MIC,H. influenzae HI3542,8 µg/mL
same,MIC,E. coli Tol C,> 64 µg/mL
same,MIC,M. catarrhalis BC3534,2 µg/mL
"CC(=O)NC[C@H]1CN(c2ccc3c(c2)CCCc2c(C)n[nH]c2-3)C(=O)O1 [Example 99, (S)-N-[3-(3-Methyl-1,4,5,6-tetrahydro-1,2-diaza-benzo[e]azulen-8-yl)-2-oxo-oxazolidin-5-ylmethyl]-acetamide]",MIC,S. aureus UC-76,1 µg/mL
same,MIC,S pyogenes C203,0.5 µg/mL
same,MIC,E. faecalis MGH-2,1 µg/mL
same,MIC,H. influenzae HI3542,4 µg/mL
same,MIC,E. coli Tol C,> 64 µg/mL
same,MIC,M. catarrhalis BC3534,4 µg/mL
"CC(=O)NC[C@H]1CN(c2ccc3c(c2)CCCc2cn(C)nc2-3)C(=O)O1 [Example 122, (S)-N-[3-(2-Methyl-2,4,5,6-tetrahydro-1,2-diaza-benzo[e]azulen-8-yl)-2-oxo-oxazolidin-5-ylmethyl]-acetamide]",MIC,S. aureus UC-76,1 µg/mL
same,MIC,S pyogenes C203,0.5 µg/mL
same,MIC,E. faecalis MGH-2,1 µg/mL
same,MIC,H. influenzae HI3542,> 64 µg/mL
same,MIC,E. coli Tol C,> 64 µg/mL
same,MIC,M. catarrhalis BC3534,> 64 µg/mL
"O=C1O[C@@H](COc2ccon2)CN1c1ccc2c(c1)CCCc1cn[nH]c1-2 [Example 158, (R)-5-(Isoxazol-3-yloxymethyl)-3-(1,4,5,6-tetrahydro-1,2-diaza-benzo[e]azulen-8-yl)-oxazolidin-2-one]",MIC,S. aureus UC-76,1 µg/mL
same,MIC,S pyogenes C203,1 µg/mL
same,MIC,E. faecalis MGH-2,2 µg/mL
same,MIC,H. influenzae HI3542,> 64 µg/mL
same,MIC,E. coli Tol C,> 64 µg/mL
same,MIC,M. catarrhalis BC3534,8 µg/mL
"O=C1O[C@@H](COc2ccon2)CN1c1ccc2c(c1)CCCc1cnoc1-2 [Example 159, (R)-3-(5,6-Dihydro-4H-1-oxa-2-aza-benzo[e]azulen-8-yl)-5-(isoxazol-3-yloxymethyl)-oxazolidin-2-one]",MIC,S. aureus UC-76,4 µg/mL
same,MIC,S pyogenes C203,2 µg/mL
same,MIC,E. faecalis MGH-2,2 µg/mL
"O=C1O[C@@H](COc2ccccn2)CN1c1ccc2c(c1)CCCc1cn[nH]c1-2 [Example 164, (R)-5-(Pyridin-2-yloxymethyl)-3-(1,4,5,6-tetrahydro-1,2-diaza-benzo[e]azulen-8-yl)-oxazolidin-2-one]",MIC,S. aureus UC-76,4 µg/mL
same,MIC,S pyogenes C203,2 µg/mL
same,MIC,E. faecalis MGH-2,4 µg/mL
same,MIC,H. influenzae HI3542,> 64 µg/mL
same,MIC,E. coli Tol C,> 64 µg/mL
same,MIC,M. catarrhalis BC3534,> 64 µg/mL
"O=C1O[C@@H](COc2ccccn2)CN1c1ccc2c(c1)CCCc1cnoc1-2 [Example 165, (R)-3-(5,6-Dihydro-4H-1-oxa-2-aza-benzo[e]azulen-8-yl)-5-(pyridin-2-yloxymethyl)-oxazolidin-2-one]",MIC,S. aureus UC-76,4 µg/mL
same,MIC,S pyogenes C203,2 µg/mL
same,MIC,E. faecalis MGH-2,4 µg/mL
same,MIC,H. influenzae HI3542,> 64 µg/mL
same,MIC,E. coli Tol C,> 64 µg/mL
same,MIC,M. catarrhalis BC3534,> 64 µg/mL
"(S)-N-[3-(2-Benzyl-2,4,5,6-tetrahydro-1,2-diaza-benzo[e]azulen-8-yl)-2-oxo-oxazolidin-5-ylmethyl]-acetamide and (S)-N-[3-(1-Benzyl-1,4,5,6-tetrahydro-1,2-diaza-benzo[e]azulen-8-yl)-2-oxo-oxazolidin-5-ylmethyl]-acetamide [Example 123]",Minimum Inhibitory Concentrations H. influenzae HI3542,H. influenzae HI3542,>64 µg/mL
same,Minimum Inhibitory Concentrations E. coli Tol C,E. coli Tol C,>64 µg/mL
same,Minimum Inhibitory Concentrations M. catarrhalis BC3534,M. catarrhalis BC3534,>64 µg/mL
